From ChEMBL document CHEMBL5390279, “Hydrolytic Activity of Mitochondrial F1FO-ATP Synthase as a Target for Myocardial Ischemia-Reperfusion Injury: Discovery and In Vitro and In Vivo Evaluation of Novel Inhibitors” (J Med Chem, 2023)
One block for each compound: values may come before it. Active and inactive are the calls of the source. No cut-off for these calls is given here.

What was measured:
H9c2 [1] = test: Induction of mitochondrial membrane potential loss in rat H9c2 cells assessed as increase in fluorescence intensity at 50 uM by TMRM dye based assay; format: cell-based
Mus musculus [2] = test: Cardioprotective activity against cardiac ischemia/reperfusion induced C57BL/6J mouse model assessed as reduction in cardiac infarct size at 3.5 mg/kg, iv prior to 5 mins of myocardial ischemia and 2 hrs of reperfusion (Rvb= 45.4 +/- 1.8 %); format: functional; set-up: scale not given: the % may be the effect or the level left; details: time 125 min, 2.083 h
Mus musculus [3] = species: Mus musculus; test: Effect on mPTP opening in C57BL6 mouse heart mitochondria assessed as number of calcium pulses by measuring green-5N fluorescence intensity at 10 to 1000 uM in presence of cyclosporin A by calcium retention capacity assay; details: dose 10-1000 µM
H9c2 [4] = test: Induction of mitochondrial membrane potential loss in rat H9c2 cells assessed as increase in fluorescence intensity at 50 uM in presence of rotenone by TMRM dye based assay; format: cell-based
H9c2 [5] = test: Induction of mitochondrial membrane potential loss in rat H9c2 cells assessed as increase in fluorescence intensity at 10 uM by TMRM dye based assay; format: cell-based
[6] = Inhibition of mouse heart mitochondrial F0F1-ATP synthase hydrolytic activity incubated for 10 mins by microplate reader analysis; format: mitochondria, Mitochondria
H9c2 [7] = test: Induction of mitochondrial membrane potential loss in rat H9c2 cells assessed as increase in fluorescence intensity at 100 uM in presence of rotenone by TMRM dye based assay; format: cell-based
H9c2 [8] = test: Cytotoxicity against rat H9c2 cells assessed as reduction in cell viability at 100 uM incubated for 24 hrs by MTT assay; format: toxicity, cell-based; details: h9c2, 24 h
H9c2 [9] = test: Cytotoxicity against rat H9c2 cells assessed as reduction in cell survival at 100 uM incubated for 24 hrs by MTT assay; format: toxicity, cell-based; details: h9c2, 24 h
H9c2 [10] = test: Cytotoxicity against rat H9c2 cells assessed as reduction in cell survival at 50 uM incubated for 24 hrs by MTT assay; format: toxicity, cell-based; details: h9c2, 24 h
Mus musculus [11] = species: Mus musculus; test: Effect on mPTP opening in C57BL6 mouse heart mitochondria assessed as number of calcium pulses by measuring green-5N fluorescence intensity at 10 to 1000 uM by calcium retention capacity assay; details: dose 10-1000 µM
H9c2 [12] = test: Induction of mitochondrial membrane potential loss in rat H9c2 cells assessed as increase in fluorescence intensity at 10 uM in presence of rotenone by TMRM dye based assay; format: cell-based
Mus musculus [13] = species: Mus musculus; test: Inhibition of mouse heart mitochondrial F0F1-ATP synthase hydrolytic activity at 200 uM incubated for 10 mins by microplate reader analysis; details: Mitochondria
Mus musculus [14] = test: Cardioprotective activity against cardiac ischemia/reperfusion induced C57BL/6J mouse model assessed as reduction in cardiac infarct size at 5 mg/kg, iv prior to 5 mins of myocardial ischemia and 2 hrs of reperfusion (Rvb= 45.4 +/- 1.8 %); format: functional; set-up: scale not given: the % may be the effect or the level left; details: time 125 min, 2.083 h
H9c2 [15] = test: Induction of mitochondrial membrane potential loss in rat H9c2 cells assessed as increase in fluorescence intensity at 100 uM by TMRM dye based assay; format: cell-based
H9c2 [16] = test: Cytotoxicity against rat H9c2 cells assessed as reduction in cell survival at 10 to 50 uM incubated for 24 hrs by MTT assay; format: toxicity, cell-based; details: h9c2, 24 h, dose 10-50 µM
H9c2 [17] = test: Cytotoxicity against rat H9c2 cells assessed as reduction in cell viability at 50 uM incubated for 24 hrs by MTT assay; format: toxicity, cell-based; details: h9c2, 24 h
Mus musculus [18] = species: Mus musculus; test: Inhibition of mouse heart mitochondrial F0F1-ATP synthase hydrolytic activity at 200 uM incubated for 10 mins by microplate reader analysis relative to control; details: Mitochondria
H9c2 [19] = test: Cytotoxicity against rat H9c2 cells assessed as reduction in cell viability at 10 to 100 uM incubated for 24 hrs by MTT assay; format: toxicity, cell-based; details: h9c2, 24 h, dose 10-100 µM
H9c2 [20] = test: Induction of mitochondrial membrane potential loss in rat H9c2 cells assessed as increase in fluorescence intensity at 10 to 100 uM in presence of rotenone by TMRM dye based assay; format: cell-based; details: dose 10-100 µM
H9c2 [21] = test: Cytotoxicity against rat H9c2 cells assessed as reduction in cell viability at 50 to 100 uM incubated for 24 hrs by MTT assay; format: toxicity, cell-based; details: h9c2, 24 h, dose 50-100 µM
H9c2 [22] = test: Induction of mitochondrial membrane potential loss in rat H9c2 cells assessed as increase in fluorescence intensity at 3 uM by TMRM dye based assay; format: cell-based
H9c2 [23] = test: Induction of mitochondrial membrane potential loss in rat H9c2 cells assessed as increase in fluorescence intensity at 3 uM in presence of rotenone by TMRM dye based assay; format: cell-based
Mus musculus [24] = test: (§1) Cardioprotective activity against cardiac ischemia/reperfusion induced C57BL/6J mouse model assessed as increase in ERK1/2 phosphorylation at 3.5 mg/kg, iv preincubated under ischemic condition for 30 mins followed by compound addition for 5 mins and subsequent incubation under reperfusion for 10 mins by Western blot analysis; format: functional, organism-based; details: time 15.0 min
H9c2 [25] = test: Cytotoxicity against rat H9c2 cells assessed as reduction in cell survival at 10 to 100 uM incubated for 24 hrs by MTT assay; format: toxicity, cell-based; details: h9c2, 24 h, dose 10-100 µM
Mus musculus [26] = test: as §1, with “cleaved caspase-3 expression” for “ERK1/2 phosphorylation”; format: functional, organism-based; details: time 15.0 min
Mus musculus [27] = test: Cardioprotective activity against cardiac ischemia/reperfusion induced C57BL/6J mouse model assessed as reduction in cardiac infarct size at 5 mg/kg, iv measured after 5 mins of myocardial ischemia and 2 hrs of reperfusion (Rvb= 45 +/- 2.2 %); format: functional; set-up: scale not given: the % may be the effect or the level left; details: time 125 min, 2.083 h
H9c2 [28] = test: Cytotoxicity against rat H9c2 cells assessed as reduction in cell survival at 0.1 to 100 uM incubated for 24 hrs by MTT assay; format: toxicity, cell-based; details: h9c2, 24 h, dose 0.1-100 µM
Mus musculus [29] = test: as §1, with “GSK3beta” for “ERK1/2”, “phosphorylation at S9 fraction” for “phosphorylation”; format: functional, organism-based; details: time 15.0 min
Mus musculus [30] = test: as §1, with “effect on Akt level” for “increase in ERK1/2 phosphorylation”; format: functional, organism-based; details: time 15.0 min
H9c2 [31] = test: Induction of mitochondrial membrane potential loss in rat H9c2 cells assessed as increase in fluorescence intensity at 0.1 to 100 uM by TMRM dye based assay; format: cell-based; details: dose 0.1-100 µM
Mus musculus [32] = test: Cardioprotective activity against cardiac ischemia/reperfusion induced C57BL/6J mouse model assessed as increase in ATP level at 3.5 mg/kg, iv preincubated under ischemic condition for 30 mins followed by compound addition for 5 mins and subsequent incubation under reperfusion for 10 mins; format: functional, organism-based; details: time 15.0 min
Mus musculus [33] = test: Cardioprotective activity against cardiac ischemia/reperfusion induced C57BL/6J mouse model assessed as reduction in cardiac infarct size at 5 mg/kg, iv measured after 25 mins of myocardial ischemia and 2 hrs of reperfusion (Rvb= 47.8 +/- 3.4 %); format: functional; set-up: scale not given: the % may be the effect or the level left; details: time 145 min, 2.417 h
H9c2 [34] = test: Induction of mitochondrial membrane potential loss in rat H9c2 cells assessed as increase in fluorescence intensity at 50 to 100 uM in presence of rotenone by TMRM dye based assay; format: cell-based; details: dose 50-100 µM
Mus musculus [35] = test: as §1, with “effect on GSK3beta level” for “increase in ERK1/2 phosphorylation”; format: functional, organism-based; details: time 15.0 min
Mus musculus [36] = test: as §1, with “Akt” for “ERK1/2”; format: functional, organism-based; details: time 15.0 min
Mus musculus [37] = test: as §1, with “Bax expression” for “ERK1/2 phosphorylation”; format: functional, organism-based; details: time 15.0 min
Mus musculus [38] = test: as §1, with “Bcl-XL expression” for “ERK1/2 phosphorylation”; format: functional, organism-based; details: time 15.0 min
Mus musculus [39] = test: as §1, with “effect on” for “increase in”, “level” for “phosphorylation”; format: functional, organism-based; details: time 15.0 min

- inhibition (Mus musculus [13]): Active
- IC50 [6]: 1980 µM
SMILES: COc1ccc(Cn2nc(-c3cccc(F)c3)c3cc(Nc4ccc(N5CCN(C)CC5)cc4)nc(N4CCOCC4)c32)cc1

- IC50 [6]: 162 µM
- inhibition (Mus musculus [18]): 50%
SMILES: Oc1ccc(/C=C/c2c3c(cc4c2[C@H](c2cc(O)cc(O)c2)[C@@H](c2ccc(O)cc2)O4)O[C@H](c2ccc(O)cc2)[C@H]3c2cc(O)cc(O)c2)cc1

- IC50 [6]: 756 µM
SMILES: Oc1ccc(/C=C/c2cc(O)cc3c2[C@H](c2cc(O)cc(O)c2)[C@@H](c2ccc(O)cc2)O3)cc1

- inhibition (Mus musculus [13]): Active
- IC50 [6]: 164 µM
SMILES: COc1ccc(Cn2nc(-c3cccc(F)c3)c3cc(Nc4ccc(N5CCN(C)CC5)cc4)nc(N4CCN(C)CC4)c32)cc1
- Activity (H9c2 [19]): Non-Toxic
- Activity (H9c2 [20]): Active
- Activity (H9c2 [21]): Toxic

- IC50 [6]: 303 µM
SMILES: COc1cc2oc(-c3ccc(O)cc3O)c(C=O)c2c(O)c1CC=C(C)C

- IC50 [6]: 65.6 µM
SMILES: Oc1ccc(/C=C/c2cc(O)cc(O)c2)cc1 [RESVERATROL]

The next lines start with the compound.

SMILES: COc1ccc(Cn2nc(-c3ccccc3)c3cc(Nc4ccc(N5CCN(C)CC5)cc4)nc(N4CCN(C)CC4)c32)cc1
- Activity (H9c2 [1]): inactive
- Activity (Mus musculus [2]): 34.8%
- Activity (Mus musculus [3]): inactive
- Activity (H9c2 [4]): Active
- Activity (H9c2 [5]): inactive
- IC50 [6]: 85.5 µM
- Activity (H9c2 [7]): Active
- Activity (H9c2 [8]): Toxic
- Activity (H9c2 [9]): Toxic
- Activity (H9c2 [10]): Non-Toxic
- Activity (Mus musculus [11]): inactive
- Activity (H9c2 [12]): inactive

SMILES: O=C(Oc1cc(S(=O)(=O)c2ccccc2)ccc1[N+](=O)[O-])c1ccc(Cl)cc1
- Activity (H9c2 [4]): inactive
- IC50 [6]: 347 µM
- Activity (Mus musculus [14]): 39.6%
- Activity (H9c2 [9]): Non-Toxic
- Activity (H9c2 [15]): inactive

SMILES: COc1ccc(Cn2nc(-c3ccccc3)c3cc(Cl)nc(N4CCNCC4)c32)cc1
- Activity (H9c2 [16]): Non-Toxic
- Activity (Mus musculus [3]): inactive
- Activity (H9c2 [4]): Active
- Activity (H9c2 [5]): inactive
- IC50 [6]: 151 µM
- Activity (H9c2 [7]): Active
- Activity (H9c2 [8]): Toxic
- Activity (H9c2 [9]): Toxic
- Activity (H9c2 [17]): Non-Toxic
- Activity (Mus musculus [11]): inactive
- inhibition (Mus musculus [18]): 50%
- Activity (H9c2 [12]): inactive

SMILES: COc1ccc(Cn2nc(-c3ccccc3)c3cc(Nc4ccc(N5CCN(C)CC5)cc4)nc(N4CCNCC4)c32)cc1
- Activity (H9c2 [1]): inactive
- Activity (Mus musculus [2]): 33.4%
- Activity (Mus musculus [3]): inactive
- Activity (H9c2 [4]): Active
- Activity (H9c2 [5]): inactive
- IC50 [6]: 107 µM
- Activity (H9c2 [7]): Active
- Activity (H9c2 [8]): Toxic
- Activity (H9c2 [10]): Non-Toxic
- Activity (Mus musculus [11]): inactive
- Activity (H9c2 [12]): inactive

SMILES: CC[C@@H]1/C=C/C=C/C[C@H](C)[C@@H](O)[C@](C)(O)C(=O)[C@H](C)[C@@H](O)[C@H](C)C(=O)[C@H](C)[C@@H](O)[C@H](C)/C=C/C(=O)O[C@H]2[C@@H](C)[C@@H](CC1)O[C@@]1(CC[C@@H](C)[C@@H](C[C@H](C)O)O1)[C@@H]2C
- Activity (H9c2 [5]): inactive
- Activity (H9c2 [22]): inactive
- Activity (H9c2 [23]): Active
- IC50 [6]: 18.5 µM
- Activity (H9c2 [12]): inactive

SMILES: O=c1c(O)c(-c2ccc(O)c(O)c2)oc2cc(O)cc(O)c12 [QUERCETIN]
- IC50 [6]: 128 µM

SMILES: COc1ccc(Cn2nc(-c3ccccc3)c3cc(Nc4ccc(N5CCN(C)CC5)cc4)nc(N4CCOCC4)c32)cc1
- Activity (Mus musculus [2]): 25.6%
- Activity (Mus musculus [24]): Active
- Activity (H9c2 [25]): Non-Toxic
- Activity (Mus musculus [26]): Active
- inhibition (Mus musculus [13]): Active
- Activity (Mus musculus [27]): 23.1%
- Activity (H9c2 [28]): Non-Toxic
- Activity (Mus musculus [29]): Active
- Activity (Mus musculus [30]): Active
- Activity (H9c2 [31]): inactive
- IC50 [6]: 98.5 µM
- Activity (Mus musculus [32]): Active
- Activity (Mus musculus [33]): 40.4%
- Activity (H9c2 [34]): Active
- Activity (Mus musculus [35]): Active
- Activity (Mus musculus [36]): Active
- Activity (Mus musculus [37]): Active
- Activity (Mus musculus [38]): Active
- Activity (Mus musculus [39]): Active
